The test system of one series is T cell. In words: Nonclinical pharmacology: DAG downstream pathway and T cell activation upon TCR stimulation. The format is cell-based.
Series [1] relates to syngeneic mouse models (inflamed tumor and TIL-poor tumor models). In words: Antitumor efficacy in syngeneic mouse tumor models. Format: in vivo.
A further series addresses DGKζ (Homo sapiens, UniProt Q13574). In words: Nonclinical pharmacology: inhibition of DGKζ activity. The format is biochemical. As to conditions: nonclinical pharmacology studies.
A short description of series [2]: 4-week repeated dose toxicity study in cynomolgus monkeys. The format is in vivo. The protocol:
(§1) Compound I has been tested in numerous preclinical studies. Data from the 4-week repeated dose toxicity study in rats and 4-week repeated dose toxicity study in cynomolgus monkeys determined STD10 in rats to be 30 mg/kg/day and the HNSTD in cynomolgus monkeys to be 3 mg/kg/day. Human equivalent doses based on body surface area conversion (conversion factors: 0.16 for rat, 0.32 for monkey) of the STD10 in rats and the HNSTD in cynomolgus monkeys are 4.8 mg/kg and 0.96 mg/kg, respectively. For a person of 60 kg body weight, one tenth of the rat STD10 is 28.8 mg (4.8 mg/kg× 1/10×60 kg) and one sixth of the HNSTD is 9.6 mg (0.96 mg/kg×⅙×60 kg). Cynomolgus monkey is the more sensitive species. Therefore, based on cynomolgus monkey HNSTD, the starting dose in human is judged to be 9.6 mg/participant once daily (QD) given orally (actual starting dose will be 10 mg based on 10 mg tablet strength).

A short description of series [3]: 4-week repeated dose toxicity study in rats. The format is in vivo. On the procedure: as §1
Series [4] can be described thus: Nonclinical safety assessments. The format is in vivo.
For series [5], the system named is peripheral blood mononuclear cells (PBMCs). In words: Preclinical in vitro CD69 expression by PBMCs after TCR mediated stimulation. The format is cell-based. To be noted: after the TCR mediated stimulation. An excerpt: The whole blood samples will be collected from the treated patients to evaluate pharmacodynamics effects of the Compound I. The preclinical in vitro studies have identified CD69 expression by peripheral blood mononuclear cells (PBMCs) as the best pharmacodynamic biomarker candidate. The CD69 is early activation biomarker expressed by many immune cells including T-cells. […] To evaluate the pharmacodynamics effect of Compound I, the PBMCs will be isolated and stimulated in vitro by CD3/CD28; the expression of the CD69 will be measured by flow cytometry.

The record followed here is patent US20250312341A1, “METHODS FOR TREATING PATIENTS WITH LOCALLY ADVANCED AND/OR METASTATIC SOLID TUMORS USING A DGK ZETA INHIBITOR” (ASTELLAS PHARMA INC., priority 2022, published 2025).

Sequence of DGKζ (Q13574 whole entry, species assumed): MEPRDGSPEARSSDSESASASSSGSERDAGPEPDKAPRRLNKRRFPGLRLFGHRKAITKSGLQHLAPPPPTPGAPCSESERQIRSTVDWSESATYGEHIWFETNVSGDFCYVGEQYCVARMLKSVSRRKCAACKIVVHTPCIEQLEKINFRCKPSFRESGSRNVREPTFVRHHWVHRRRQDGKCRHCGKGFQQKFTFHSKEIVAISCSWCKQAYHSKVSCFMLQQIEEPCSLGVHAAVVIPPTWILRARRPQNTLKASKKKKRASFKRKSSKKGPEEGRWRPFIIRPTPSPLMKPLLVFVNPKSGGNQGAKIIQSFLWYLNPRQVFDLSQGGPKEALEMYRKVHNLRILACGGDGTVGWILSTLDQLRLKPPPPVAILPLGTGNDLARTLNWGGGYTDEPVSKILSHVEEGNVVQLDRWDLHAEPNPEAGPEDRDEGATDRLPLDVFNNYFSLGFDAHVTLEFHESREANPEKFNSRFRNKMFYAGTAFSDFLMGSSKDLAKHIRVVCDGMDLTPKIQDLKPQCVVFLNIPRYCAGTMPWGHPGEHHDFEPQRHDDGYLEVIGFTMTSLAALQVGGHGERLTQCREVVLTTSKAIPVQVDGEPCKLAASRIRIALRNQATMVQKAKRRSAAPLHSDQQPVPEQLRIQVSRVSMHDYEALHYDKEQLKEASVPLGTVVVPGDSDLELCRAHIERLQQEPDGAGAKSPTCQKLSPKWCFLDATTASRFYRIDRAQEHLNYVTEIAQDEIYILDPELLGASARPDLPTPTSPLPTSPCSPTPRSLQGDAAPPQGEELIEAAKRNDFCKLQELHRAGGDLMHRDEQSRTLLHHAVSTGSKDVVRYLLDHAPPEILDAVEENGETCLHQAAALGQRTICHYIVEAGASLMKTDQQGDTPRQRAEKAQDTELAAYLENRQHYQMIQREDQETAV

Turning to `CNC[C@H]1CN(c2c(NC(=O)c3ccn(-c4ccnnc4)n3)ccc(Oc3ccccc3F)c2C(F)(F)F)CCN1C` [Compound I, N-[4-(2-Fluorophenoxy)-2-{(3S)-4-methyl-3-[(methylamino)methyl]piperazin-1-yl}-3-(trifluoromethyl)phenyl]-1-(pyridazin-4-yl)-1H-pyrazole-3-carboxamide], the “activation of DAG downstream pathways and T cell activation” value in the series with T cell is given as “enhances activation of DAG downstream pathways as well as T cell activation”. The Anti-tumor efficacy result in series [1] (anti-PD-1 poor-responsive syngeneic mouse models as well as responsive models) was “demonstrated”. In series [1] (oral administration, inflamed tumor and TIL-poor tumor models), the antitumor efficacy entry is listed as “demonstrated antitumor efficacy”. The DGKζ activity entry at DGKζ was “inhibits DGKζ activity”. In addition, in series [2] (body surface area conversion, factor 0.32 for monkey), the “Human equivalent dose of the HNSTD in cynomolgus monkeys” value came out at 0.96 mg/kg. In addition, in series [2] (cynomolgus monkeys, 4-week repeated dose), the HNSTD is given as 3 mg/kg/day. Further, in series [3] (body surface area conversion, factor 0.16 for rat), the “Human equivalent dose of the STD10 in rats” value was determined as 4.8 mg/kg. In series [3] (rats, 4-week repeated dose), the STD10 was 30 mg/kg/day. Also, the nonclinical safety findings entry in series [4] was “risk of effect on body weight, gastrointestinal tract, electrocardiogram (ECG) parameters, hemodynamic and body temperature, lymphohematopoietic system and reproductive toxicity”. Also, in series [5], the “expression of CD69” value is reported as “induces increased expression of CD69”.
